# Test results published in patent US20160310505A1, “PROSTAMIDES FOR ENHANCEMENT OF LEPTIN PRODUCTION” (Allergan, Inc., priority 2013, published 2016).
# “Also recorded” adds a separate entry of the source.
# Tests used:
# [1] = Once a day topical application to rats for six months (subcutaneous fat, body weight); type: in vivo; settings: for subcutaneous fat: topical once a day, six months, ~10% body surface coverage; for body weight (FIG. 2): topical treatment
# Description: Bimatoprost (AGN 192024) is a synthetic prostamide which has been used in intraocular pressure lowering therapeutics such as LUMIGAN® 0.03, LUMIGAN® 0.01 and GANFORT®. […] In FIG. 1, bimatoprost was applied topically once per day for 6 months to rats. […] FIG. 2 describes the systemic exposure (topically applied) of bimatoprost by measuring blood levels of the compound after treatment. […] The in vivo action of bimatoprost is likely a dual mechanism to inhibit food intake and suppress replenishment of fat cells during normal turnover. […] Blood was drawn every 2 weeks and the serum was analyzed for leptin levels by luminex assay. […] A cafeteria diet is a high sugar and fat diet with typical “junk food”: […]
# human pre-adipocytes = test: Leptin production in human pre-adipocytes; type: cell-based; settings: 1 μM, 8 days, vehicle DMSO
# Experimental: Vehicle is DMSO, bimatoprost treatment at 1 μM. Stimulation of leptin over 8-days of bimatoprost treatment; In FIG. 1, bimatoprost was applied topically once per day for 6 months to rats. […] FIG. 2 describes the systemic exposure (topically applied) of bimatoprost by measuring blood levels of the compound after treatment. […] The in vivo action of bimatoprost is likely a dual mechanism to inhibit food intake and suppress replenishment of fat cells during normal turnover. […] Blood was drawn every 2 weeks and the serum was analyzed for leptin levels by luminex assay. […] A cafeteria diet is a high sugar and fat diet with typical “junk food”: […]
# pre-adipocyte = test: Pre-adipocyte differentiation; type: cell-based
# Leptin = test: Serum leptin levels by luminex assay in male rats on a cafeteria diet; type: in vivo
# Experimental: In FIG. 1, bimatoprost was applied topically once per day for 6 months to rats. […] FIG. 2 describes the systemic exposure (topically applied) of bimatoprost by measuring blood levels of the compound after treatment. […] The in vivo action of bimatoprost is likely a dual mechanism to inhibit food intake and suppress replenishment of fat cells during normal turnover. […] Blood was drawn every 2 weeks and the serum was analyzed for leptin levels by luminex assay. […] A cafeteria diet is a high sugar and fat diet with typical “junk food”: […]
# [2] = Cafeteria diet induced fatty liver in rats, liver histology; type: in vivo; settings: cafeteria diet 10 weeks
# Description: Rats were fed the cafeteria diet for 10 weeks and administered bimatoprost daily. At the end of 10 weeks, livers were resected and examined by histology. […] This has important consequences in the potential treatment of non-alcoholic fatty liver disease (NAFLD).
# [3] = Patient use examples (transdermal patch or topical gel); type: in vivo, human
# Description: A person who is morbidly obese applies a bimatoprost transdermal skin patch on their arm, which uniformly releases a 5% w/w bimatoprost formulation over a thirty day period. […] The patient loses 6 pounds more than they would have otherwise lost without using the bimatoprost transdermal skin patch. A person applies a 3% w/w bimatoprost gel to their skin once a day. […] A person with elevated blood pressure has been determined by doctors to have prediabetes. In addition to being on a low fat, low sugar diet, the patient uses a transdermal bimatoprost patch which releases a 3% w/w bimatoprost formulation through the dermis and into the blood stream. […] A person is diagnosed with non-alcoholic fatty liver. The patient applies a transdermal bimatoprost patch which releases a 2% w/w bimatoprost formulation. […] A healthy person in an effort to lose weight is on a low fat diet. In order to suppress their appetite, the person applies a bimatoprost transdermal patch which continually releases 1% w/w bimatoprost for 30 days.
# [4] = Example 1: transdermal skin patch, 5% w/w, thirty days
# [5] = Example 3: prediabetes patient, transdermal patch, 3% w/w
# [6] = Example 5: transdermal patch, 1% w/w, 30 days
smiles,measurement,setting,value
"CCNC(=O)CCC/C=C\C[C@@H]1[C@@H](/C=C/[C@@H](O)CCc2ccccc2)[C@H](O)C[C@@H]1O [bimatoprost, Bimatoprost]",subcutaneous fat at sites distal to the application site (FIG. 1),[1]; 3% w/v bimatoprost vs vehicle,subcutaneous fat reduction at sites distal to the application site
same,subcutaneous fat,[1],"substantial local subcutaneous fat reduction, as well as reduction at adjunct and distal sites"
same,subcutaneous fat,[1]; listed as Bimatoprost,subcutaneous fat loss at sites distant from the application site
same,body weight (FIG. 2),[1],reduction in body weight
same,body weight (FIG. 2),[1]; listed as Bimatoprost,reduction in weight over time
same,leptin production (FIG. 3),human pre-adipocytes,increases Leptin production; also recorded: increase in leptin production
same,differentiation of pre-adipocytes,pre-adipocyte,inhibit differentiation
same,serum leptin levels,"Leptin; male rats on cafeteria diet, 0.3% bimatoprost in BSHG formulation topical daily, p<0.01, 2-way ANOVA",elevated levels of Leptin
same,leptin levels (FIG. 4),"Leptin; rats on a cafeteria diet, topical daily",elevated leptin levels
same,liver lipidosis,[2]; 0.3% bimatoprost formulation daily,reduced lipidosis as compared to the control
same,liver lipidosis,[2]; 1% bimatoprost formulation daily,reduced lipidosis as compared to the control
same,cafeteria diet induced fatty liver changes (FIG. 5),[2]; topical daily,dose-dependently decreases cafeteria diet induced fatty liver changes; also recorded: inhibited cafeteria diet induced fatty liver disease
same,leptin levels,"[3]; Example 1: morbidly obese person, transdermal skin patch, 5% w/w, thirty days",leptin levels increase
same,additional weight lost versus no patch,[3]; [4],6 pounds
same,appetite,[3]; [4],suppressed appetite
same,leptin levels,"[3]; Example 2: 3% w/w gel on skin once a day, after several days",elevated leptin levels
same,appetite,[3]; Example 2: 3% w/w gel once a day,suppresses appetite
same,body weight,"[3]; Example 2: 3% w/w gel once a day, sixty day period",maintains their weight
same,appetite,[3]; [5],reduction in appetite
same,blood leptin levels,[3]; [5],immediate increase in blood leptin levels
same,body weight,[3]; [5],weight loss
same,lipidosis in the liver,"[3]; Example 4: non-alcoholic fatty liver patient, transdermal patch, 2% w/w",reduction in lipidosis in the liver
same,leptin levels,"[3]; Example 5: healthy female on low fat diet, transdermal patch, 1% w/w, 30 days",leptin levels rise
same,appetite,[3]; [6],suppression of their appetite
same,body weight,[3]; [6],greater weight loss
